# Reference: PMC12580772, “A First-in-Human Study of ATM Inhibitor Lartesertib as Monotherapy in Patients with Advanced Solid Tumors” (Clinical Cancer Research, 2025)
# Columns and labels:
# [1] = test system: acute myeloid leukemia model Mv4.11; set-up: method as in PMID 37079339; details: combination with the ATR inhibitor gartisertib; cited from earlier work
# [2] = test system: ctDNA somatic variant allele frequency; assay: Plasma ctDNA next-generation sequencing (Guardant Health OMNI panel), molecular response; assay type: in vivo, human; details: 21 evaluable patients
# Procedure: Circulating immune factors (e.g., IFN-β, IFN-γ, IL-1β, IL-2, IL-4, IL-6, IL-8, IL-10, IL-12p70, IL-13, TNF-α, and NKG2DL) were assessed using immunofluorescence assays. Additionally, blood samples were tested for plasma ctDNA by next-generation sequencing at Guardant Health using the OMNI panel. This analysis was conducted to evaluate surrogate markers of tumor dynamics, sensitivity, and resistance to treatment. Molecular response (MR) was assessed and defined as strongest change of—per visit averaged—somatic variant allele frequency (VAF) against the pretreatment level as follows: Best delta mean VAF = MIN (meanVAFvisiti – meanVAFpretreatment / meanVAFpretreatment)
# γ-H2AX = assay: PD analysis: γ-H2AX in CD45+ lymphocytes after ex vivo bleomycin stimulation, flow cytometry; set-up: species or system human; details: 2, 4, 6 hours on Day 1, sustained Day 2 at 2 to 4 hours, all four DLs
# Procedure: The PD analyses in blood were conducted using samples collected during Cycle 1 at the following time points: Day 1, pre-dose, and post-dose at 2, 4, and 6 hours; Day 2 at pre-dose and post-dose at 2 to 4 hours; and Day 22 at pre-dose and post-dose at 2 and 4 hours. These samples were analyzed to assess levels of the PD biomarker, γ-H2AX, a phosphorylated histone variant known to represent an early and sensitive marker of DSB response ([18]). Each sample was stimulated ex vivo with bleomycin, a DNA DSB inducer that activates ATM function, or with phosphate-buffered saline as a negative control. γ-H2AX was subsequently measured in the CD45^+ lymphocyte fraction by flow cytometry.
# advanced solid tumors = assay: Efficacy: tumor response and PFS by RECIST version 1.1; assay type: in vivo, human
# Description: The primary endpoints were the occurrence of DLTs, adverse events (AE), and treatment-related and treatment-emergent AEs (TEAE), along with the occurrence of clinically significant changes in vital signs, laboratory parameters, and 12-lead electrocardiogram findings. The secondary endpoints included PK parameters of lartesertib in plasma after single and multiple doses; establishment of the recommended dose for expansion based on safety, PK, and PD data; absolute and relative changes overtime from baseline in ATM pathway readouts assessed by flow cytometry and immunohistochemistry; and objective response, duration of response, and progression-free survival (PFS) according to the RECIST version 1.1, as assessed by the investigator. Exploratory endpoints included the correlation of baseline and on-treatment biomarkers with response to lartesertib treatment as well as relative changes in total blood cell count, immune cells, and circulatory factors during exposure to lartesertib.
# For the efficacy analysis, the proportion of patients with objective response, defined as radiologic complete response (CR) + partial response, was tabulated, and the 95% confidence interval (CI) was estimated using the Clopper–Pearson method. PFS was estimated using the Kaplan–Meier method. The median PFS time and rate estimates at 3, 6, and 12 months, as well as every 6 months thereafter, were also summarized.
# [3] = test system: patient-derived xenograft models of triple-negative breast cancer; set-up: method as in PMID 37079339; details: lartesertib in combination with gartisertib; cited from earlier work
# [4] = test system: patients with advanced solid tumors; set-up: method as in PMID 38407317; details: combination of lartesertib and tuvusertib; cited from earlier work
# [5] = test system: cancer cell lines (head and neck, colon, lung, gastric, breast, and melanoma); set-up: method as in PMID 35405736; details: in vitro; cited from earlier work
# [6] = test system: HBC-x9 triple-negative breast cancer model; set-up: method as in PMID 35405736; details: combined with PARP inhibitors (rucaparib or niraparib), wild-type BRCA1/2; cited from earlier work
structure (smiles),measurement,setting,value
COc1cc2ncc3c(c2cc1-c1cn(C)nc1C)n(-c1c(F)cncc1OC)c(=O)n3C [lartesertib],Tumor growth,[1],almost complete tumor regression
same,Patients with molecular response (ctDNA VAF decrease of ≥50% from baseline),[2],four patients of 21 evaluable patients
same,γ-H2AX target inhibition over time,γ-H2AX,trend of increasing lartesertib target inhibition
same,Best overall response: Non-complete response/non-progressive disease,advanced solid tumors; 100 mg n = 2,1 (50.0) n (%)
same,Best overall response: Not evaluable,advanced solid tumors; 100 mg n = 2,1 (50.0) n (%)
same,Best overall response: Progressive disease,advanced solid tumors; 100 mg n = 2,0 (0.0) n (%)
same,Best overall response: Stable disease,advanced solid tumors; 100 mg n = 2,0 (0.0) n (%)
same,Progressive disease/Deaths (PFS events),advanced solid tumors; 100 mg n = 2,0 (0.0) n (%)
same,"PFS, median (min, max)","advanced solid tumors; 100 mg n = 2, NC, noncalculable","NC (1.2,4.0)"
same,Best overall response: Non-complete response/non-progressive disease,advanced solid tumors; 200 mg n = 7,0 (0.0) n (%)
same,Best overall response: Not evaluable,advanced solid tumors; 200 mg n = 7,2 (28.6) n (%)
same,Best overall response: Progressive disease,advanced solid tumors; 200 mg n = 7,5 (71.4) n (%)
same,Best overall response: Stable disease,advanced solid tumors; 200 mg n = 7,0 (0.0) n (%)
same,"PFS, median (min, max)",advanced solid tumors; 200 mg n = 7,"1.1 (0.0, 1.6) months"
same,Progressive disease/Deaths (PFS events),advanced solid tumors; 200 mg n = 7,6 (85.7) n (%)
same,Best overall response: Non-complete response/non-progressive disease,advanced solid tumors; 300 mg n = 9,0 (0.0) n (%)
same,Best overall response: Not evaluable,advanced solid tumors; 300 mg n = 9,2 (22.2) n (%)
same,Best overall response: Progressive disease,advanced solid tumors; 300 mg n = 9,6 (66.7) n (%)
same,Best overall response: Stable disease,advanced solid tumors; 300 mg n = 9,1 (11.1) n (%)
same,"PFS, median (min, max)",advanced solid tumors; 300 mg n = 9,"1.3 (0.0, 4.1) months"
same,Progressive disease/Deaths (PFS events),advanced solid tumors; 300 mg n = 9,7 (77.8) n (%)
same,Best overall response: Non-complete response/non-progressive disease,advanced solid tumors; 400 mg n = 4,0 (0.0) n (%)
same,Best overall response: Not evaluable,advanced solid tumors; 400 mg n = 4,2 (50.0) n (%)
same,Best overall response: Progressive disease,advanced solid tumors; 400 mg n = 4,1 (25.0) n (%)
same,Progressive disease/Deaths (PFS events),advanced solid tumors; 400 mg n = 4,1 (25.0) n (%)
same,"PFS, median (min, max)","advanced solid tumors; 400 mg n = 4, NC, noncalculable","NC (0.0, 2.8)"
same,Best overall response: Non-complete response/non-progressive disease,advanced solid tumors; Total N = 22,1 (4.5) n (%)
same,Best overall response: Not evaluable,advanced solid tumors; Total N = 22,7 (31.8) n (%)
same,Best overall response: Progressive disease,advanced solid tumors; Total N = 22,12 (54.5) n (%)
same,Best overall response: Stable disease,advanced solid tumors; Total N = 22,2 (9.1) n (%)
same,"PFS, median (min, max)",advanced solid tumors; Total N = 22,"1.3 (0.0, 4.1) months"
same,Progressive disease/Deaths (PFS events),advanced solid tumors; Total N = 22,14 (63.6) n (%)
same,Median PFS,"advanced solid tumors; all patients, Kaplan–Meier","1.3 (95% CI, 0.99–1.58) months"
same,Best overall response stable disease,advanced solid tumors; of 22 patients,9.1%
same,Progressive disease,advanced solid tumors; of 22 patients,54.5%
same,Non-CR/non–progressive disease,"advanced solid tumors; of 22 patients, prostate gland cancer",4.5%
same,Duration of stable disease,advanced solid tumors; patient with nasopharyngeal cancer,120 days
same,Tumor control rate,[3],42%
same,Patients experiencing SD for >16 weeks,[4],six of 42
same,Radiotherapy sensitivity of cancer cell lines,[5],enhances the radiotherapy sensitivity
same,Efficacy and tolerability,[6],enhanced efficacy and acceptable tolerability
